ChEMBL document CHEMBL5726187, “Pyrimido-pyridazinone compounds and methods of use thereof” (2019)

How the values were obtained:
[1] = molecular target: Tyrosine-protein kinase SYK (Homo sapiens, UniProt P43405); assay: Inhibition of Enzymatic Syk Kinase Activity: 2.5 μL of 10% DMSO or compound in 10% DMSO was added to the wells in a 96 well V-bottom plate. Optimized concentration of in-house Syk enzyme (different batches of Syk (356-635) kinase domain) were used at optimized concentrations) ranging from 0.035 ng to 7.5 ng/reaction diluted in assay buffer was added to a total volume of 12.5 μL). Compound and protein were incubated for 30 minutes at room temperature on a plate shaker. Ten μL of a substrate mix containing 100 μM ATP (0.25 μL), γ-P32-ATP (0.1 μL; 10 μCi/μL), pG4T (0.25 μL; 10 mg/mL) and 1× assay buffer (9.4 μL) was added to all the wells. Samples were incubated at 30° C. for 10 minutes after mixing. The reaction was stopped by the addition of 8N HCl (13 μL) containing 100 mM ATP. Thirty μL of sample was transferred to the center of a 2×2 cm2 Whatman P81 chromatography paper. After allowing the sample to dry for one minute, the assay squares were washed 3 times for 5 minutes each in ortho-phosphoric acid (0.5%) and once in acetone. Assay squares were dried for 15 minutes in a 30° C. oven and transferred to 96 well optiplate. Microscint-O reagent (100 μL, Perkin Elmer) was added to each well, the plate was sealed with Topseal-A microplates and incubated for 10 minutes at room temperature at very low speed on rocker and the plate was read in the Topcount NXL instrument.
[2] = molecular target: Tyrosine-protein kinase JAK2 (Homo sapiens, UniProt O60674); assay: Inhibition of Enzymatic JAK2 Kinase Activity: Two μL of 10% DMSO in blank, substrate control and positive control wells and 2 μL of test compound in test wells was added. Thirteen μL of assay buffer in blank and substrate control wells and 13 μL of Enzyme buffer mix in positive and test wells was added. The reaction mixture was incubated for 30 minutes at RT on a plate shaker. Ultra Light-pGT substrate (5 μL) [poly Glu-Tyr (4:1) labeled with U Light TM dye, a tyrosine kinase substrate] and ATP mix was added to all wells. The reaction plate was incubated for 60 minutes at RT on a plate shaker. The reaction was stopped by adding 40 mM EDTA (10 μL) in buffer. Ten μL of antibody was added to all the wells.
Chain of Tyrosine-protein kinase JAK2 (O60674 whole entry): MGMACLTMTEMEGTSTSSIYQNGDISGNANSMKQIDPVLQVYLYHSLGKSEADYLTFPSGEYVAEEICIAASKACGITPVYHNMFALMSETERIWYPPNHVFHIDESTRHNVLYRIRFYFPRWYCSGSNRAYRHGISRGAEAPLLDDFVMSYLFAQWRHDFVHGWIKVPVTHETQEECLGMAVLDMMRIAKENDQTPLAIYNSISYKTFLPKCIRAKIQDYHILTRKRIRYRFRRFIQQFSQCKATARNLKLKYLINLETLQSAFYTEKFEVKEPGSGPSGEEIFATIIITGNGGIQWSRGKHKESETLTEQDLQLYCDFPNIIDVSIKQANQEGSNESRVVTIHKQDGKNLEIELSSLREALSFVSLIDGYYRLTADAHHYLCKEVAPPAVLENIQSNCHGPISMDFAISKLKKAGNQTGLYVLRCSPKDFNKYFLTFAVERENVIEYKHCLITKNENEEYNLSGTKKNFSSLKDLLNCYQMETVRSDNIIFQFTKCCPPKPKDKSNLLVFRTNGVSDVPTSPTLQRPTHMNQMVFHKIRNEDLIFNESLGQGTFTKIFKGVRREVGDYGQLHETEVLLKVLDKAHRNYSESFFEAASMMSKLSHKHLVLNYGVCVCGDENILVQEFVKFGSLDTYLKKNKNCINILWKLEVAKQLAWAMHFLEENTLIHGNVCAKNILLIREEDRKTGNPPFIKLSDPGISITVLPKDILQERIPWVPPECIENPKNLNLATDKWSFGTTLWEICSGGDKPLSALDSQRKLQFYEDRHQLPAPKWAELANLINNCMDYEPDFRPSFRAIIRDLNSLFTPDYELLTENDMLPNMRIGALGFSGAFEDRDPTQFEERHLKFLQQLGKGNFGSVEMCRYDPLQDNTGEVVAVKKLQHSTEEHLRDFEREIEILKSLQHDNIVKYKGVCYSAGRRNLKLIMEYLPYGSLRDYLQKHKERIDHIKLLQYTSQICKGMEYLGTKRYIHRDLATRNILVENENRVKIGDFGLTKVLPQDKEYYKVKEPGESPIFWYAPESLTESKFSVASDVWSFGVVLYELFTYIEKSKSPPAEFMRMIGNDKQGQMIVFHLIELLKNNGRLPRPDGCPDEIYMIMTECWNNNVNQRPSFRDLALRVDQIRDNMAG

| SMILES | IC50 [1] | IC50 [2] |
| --- | --- | --- |
| COc1cc(Nc2nc(N3CCCCCC3)nc3cn[nH]c(=O)c23)cc(OC)c1 | > 100 nM |  |
| CC1CC(C)CN(c2nc(Nc3ccc(N4CCC(CC(=O)O)CC4)cc3)c3c(=O)[nH]ncc3n2)C1 (stereo unspecified) | < 50 nM | < 10 nM |
| O=C(O)C1CC12CCN(c1ccc(Nc3nc(-c4ccc(F)cc4)nc4cn[nH]c(=O)c34)cc1)CC2 (stereo unspecified) | < 100 nM | < 50 nM |
| N#CCC1CCN(c2nc(Nc3ccc(N4CCC(F)(F)CC4)cc3)c3c(=O)[nH]ncc3n2)CC1 | < 50 nM | < 10 nM |
| O=c1[nH]ncc2nc(N3CCCCCC3)nc(Nc3ccc(OCCN4CCNCC4)cc3)c12 | < 50 nM |  |
| O=C(O)C1CC12CCC(c1ccc(Nc3nc(NC4CCCCC4)nc4cn[nH]c(=O)c34)cc1)CC2 (stereo unspecified) | < 50 nM | < 50 nM |
| COc1ccc(-c2nc(Nc3ccc(N4CCC5(CC4)CC5C(=O)O)cc3)c3c(=O)[nH]ncc3n2)cc1 (stereo unspecified) | < 100 nM | < 100 nM |
| N#CCC1CCN(c2nc(Nc3ccc(N4CCCC(O)C4)nc3)c3c(=O)[nH]ncc3n2)CC1 (stereo unspecified) | < 50 nM | < 50 nM |
| O=C(O)CN1CCN(c2ccc(Nc3nc(N4CCCCCC4)nc4cn[nH]c(=O)c34)cc2)CC1 | < 10 nM | < 10 nM |
| N#CCC1CCN(c2nc(Nc3ccc(F)cc3)c3c(=O)[nH]ncc3n2)CC1 | > 100 nM |  |
| O=C1CC2(CCN(c3nc(Nc4ccc(CN5CCNCC5)cc4)c4c(=O)[nH]ncc4n3)CC2)CC(=O)N1 | > 100 nM |  |
| CC(C)(C#N)N1CCN(CCOc2ccc(Nc3nc(N4CCCCCC4)nc4cn[nH]c(=O)c34)cc2)CC1 | < 50 nM | < 50 nM |
| O=c1[nH]ncc2nc(N3CCCCC3)nc(Nc3ccc(OCCN4CCCNCC4)cc3)c12 | < 50 nM | < 50 nM |

Other lines, results leading:

| IC50 [1] | IC50 [2] | SMILES |
| --- | --- | --- |
| < 50 nM | < 10 nM | O=c1[nH]ncc2nc(N3CCCCCC3)nc(Nc3ccc(OCCN4CCCNCC4)cc3)c12 |
| < 50 nM | < 50 nM | O=C(O)C1CC12CCC(c1ccc(Nc3nc(N4CCCCC4)nc4cn[nH]c(=O)c34)cc1)CC2 (stereo unspecified) |
| < 50 nM | < 50 nM | CC(C)(CO)Oc1ccc(Nc2nc(N3CCC(CC#N)CC3)nc3cn[nH]c(=O)c23)cc1 |
| < 50 nM | < 50 nM | CC(C)(O)C(=O)N1CCN(c2ccc(Nc3nc(N4CCC(CC#N)CC4)nc4cn[nH]c(=O)c34)cn2)CC1 |
| < 50 nM | < 10 nM | CC(C)(C(N)=O)N1CCN(c2ccc(Nc3nc(N4CCCCCC4)nc4cn[nH]c(=O)c34)cc2)CC1 |
| < 50 nM | < 10 nM | CN(c1nc(Nc2ccc(N3CCC4(CC3)CC4C(=O)O)cc2)c2c(=O)[nH]ncc2n1)C1CCCCC1 (stereo unspecified) |
| < 50 nM | < 10 nM | CC(C)(Oc1ccc(Nc2nc(N3CCCCCC3)nc3cn[nH]c(=O)c23)cc1)C(=O)O |
